Read-outs that look alike come from different tables or passages of the source. Positions of bridges follow the written chain, without caps; N, C: chain ends. Non-standard residues stand in square brackets, D forms with d. Residues, ends and D or L forms follow the SMILES beside them. No end group written: not given here. Nle = CCCC[C@H](N)C(=O)O
What was measured:
[1] = Serum stability assay; format: in vitro ADME; conditions: human serum of healthy donors, lipids removed by centrifugation, 37 °C, peptide 30-60 μM from 10-fold stock in PBS, followed over 48 h, urea/TFA quench, analytical RP-HPLC peak area vs time 0, one-phase decay fit, mean ± SD, n = 2 (pepitem n = 5); for half-life: read-out: Serum t 1/2 (converted)
Protocol: Stability of peptides in human serum was measured similarly to that previously described. In short, fresh blood from healthy donors was collected in serum collection tubes (Clot Activator Tube, Becton Dickinson, Plymouth, United Kingdom, […]) and incubated at 4 °C for 2 h to allow blood clotting. The serum was separated by centrifugation at 1000 × g for 10 min. To remove lipids from the serum, an additional centrifugation step was performed at 15,000 × g for 15 min at 4 °C, after which the serum was used for the stability assays. For this, the serum was prewarmed for 10 min at 37 °C before the addition of the test compounds. Peptides were prepared at a 10-fold concentration in PBS and diluted to a final concentration between 60 and 30 μM with the serum. The serum-peptide reaction mix was incubated at 37 °C, and 40 μL aliquots were taken at the indicated time points. To stop the reaction, samples were mixed with 40 μL of 6 M urea for 10 min on ice, followed by precipitation of serum proteins by the addition of 40 μL of 20% TFA and incubation for at least 10 min on ice. The precipitate was pelleted at 15,000 × g for 15 min, and 90 μL of the supernatant was freeze-dried. The dry material was resuspended in HPLC solvent A (0.1% TFA in ddH2O). Peptide quantification was performed using analytical HPLC. The remaining peptide relative to the starting point (time point 0) was calculated by peak integration to determine the area under the peak at the designated time points and further calculated in comparison to time point 0 min, which was set as 100%. To calculate the half-life of the peptides in human serum, data points were fitted with a one-phase decay equation.

[2] = tested on: CD4+ lymphocytes (CD3+, CD4+); format: cell-based, human; conditions: normalized to untreated control, mean ± SEM of 4-6 experiments
Protocol: (§1) Transwell migration assays were performed similarly as published previously. HMEC-1 cells were seeded at a density of 75,000 cells per well in transwell inserts. Three days after cell seeding, the medium was changed, and the cells were stimulated with 100 ng/mL TNF-α and 20 ng/mL IFN-γ for 16–18 h. On the day of the assay, cells were washed with migration medium (serum-free RPMI medium supplemented with 0.1% BSA) to remove residual cytokines and starved for at least 1 h at 37 °C in migration medium. PBMC were starved for at least 1.5 h in migration medium before addition to the EC. For S1P and lifitegrast-treated samples, the PBMC were preincubated for at least 1.5 h at 37 °C with the ligands before addition to the EC. Pepitem and other peptides were added onto the EC monolayer and preincubated for 15–30 min at 37 °C before the addition of the PBMC. 200,000 PBMC per well were added directly on top of the EC prestimulated with pepitem or other peptides to reach a final volume of 150 μL in the donor compartments. The receiver compartments of the wells were filled with 600 μL RPMI with 20% FBS. After 4 h of migration at 37 °C, the receiver compartment with the migrated cells was collected. The migrated cells were stained with the indicated antibodies: CD3-APC (clone: OKT3, lot: B400127), CD4-PE (clone: OKT4. lot: B379180), CD8-FITC (clone: HIT8a, lot: B370193) from Biolegend and CD3-VioGreen (clone: REA613, lot: 5240502518), CD45RO-FITC (clone: REA611, lot: 5240502519), CD4-PerCP-Vio700 (clone: REA623, lot: 5240506702), CXCR3 PE-Vio615 (clone: REA232, lot: 5240506722), CD196-APC (clone: REA190, lot: 5240506717), CD8-APC-Vio770 (clone: REA734, lot: 5240303993) and CD45RO-PEVio616 (clone: REA611, lot: 5231102514) from Miltenyi Biotec (Bergisch Gladbach, Germany) and counted using precision counting beads (Biolegend) on a CytoflexS flow cytometer (BeckmanCoulter). Data was analyzed using CytExpert (Version 2.4). T cells were gated as CD3^+ cells, T cell subsets were gated as CD4^+ (CD3^+, CD4^+), CD8^+ (CD3^+, CD8^+), memory CD4^+ (CD3^+, CD4^+, CD45RO^+), memory CD8^+ (CD3^+, CD8^+, CD45RO^+) and Th1 cells (CD3^+, CD4^+, CXCR3^+, CCR6^–).
(§2) Data were analyzed using GraphPad Prism software. EC50 values were calculated by three-parameter nonlinear regression analysis. For this, the data points were normalized to the number of migrated cells in untreated (buffer) control samples (100%), and the regression was fitted with the top constraint to 100 and the slope fixed to 1. Statistical significance is indicated in graphs as n.s. not significant, * p < 0.05; ** p < 0.01; *** p < 0.001. The statistical tests used are indicated in the respective figure captions.

[3] = tested on: CD8+ lymphocytes (CD3+, CD8+); format: cell-based, human; conditions: normalized to untreated control, mean ± SEM of 4-6 experiments
Protocol: as §1, §2

[4] = tested on: memory CD8+ cells (CD3+, CD8+, CD45RO+); format: cell-based, human; conditions: normalized to untreated control, mean ± SEM of 4-6 experiments
Protocol: as §1, §2

[5] = tested on: memory CD4+ cells (CD3+, CD4+, CD45RO+); format: cell-based, human; conditions: normalized to untreated control, mean ± SEM of 4-6 experiments
Protocol: as §1, §2

[6] = tested on: CD3+ lymphocytes; experiment: cells; format: cell-based, human; conditions: for % Inhibition of cell migration compared to control, CD3+: normalized to untreated control, mean ± SEM of 4-6 experiments
Protocol: 1 Transwell-based migration assay to study lymphocyte transendothelial migration. (A) The general principle of the transwell migration assay is depicted. Endothelial cells (EC) are seeded in transwell inserts and are incubated for 2 days to form an EC monolayer. On the day before the assay, the ECs are cytokine-stimulated to induce the expression of adhesion molecules. In the migration assay, human peripheral blood mononuclear cells (PBMC) are placed into the donor compartment of the transwell setup. After 4 h of incubation time, the migrated cells are harvested from the receiver compartment, stained with fluorescent antibodies and counted using flow cytometry. (B) PBMCs were preincubated with S1P for 1.5 h and then transferred into the donor compartment on top of the EC monolayer. […] Data are shown as mean ± SD of 3 to 5 independent experiments.
as §1, §2

[7] = Homo sapiens, Lymphocyte, PBMC preincubated with ligand for 1.5 h, then added onto EC monolayer, 4 h migration, mean ± SD, 3 or more experiments, read-out: EC50, inhibition of CD3+ cell migration

half-life [1] | EC50 [6, 7] | Serum t 1/2 [1] | EC50 ([6]; 4 h) | Compound | % Inhibition of cell migration compared to control, CD4+ ([2]; 0.1 μM) | % Inhibition of cell migration compared to control, CD4+ ([2]; 1 μM) | % Inhibition of cell migration compared to control, CD8+ ([3]; 0.1 μM) | % Inhibition of cell migration compared to control, CD8+ ([3]; 1 μM) | % Inhibition of cell migration compared to control, Memory CD8+ ([4]; 0.1 μM) | % Inhibition of cell migration compared to control, Memory CD8+ ([4]; 1 μM) | % Inhibition of cell migration compared to control, Memory CD4+ ([5]; 0.1 μM) | % Inhibition of cell migration compared to control, Memory CD4+ ([5]; 1 μM) | % Inhibition of cell migration compared to control, CD3+ ([6]; 0.1 μM) | % Inhibition of cell migration compared to control, CD3+ ([6]; 1 μM)
> 2880 min | – | – | – | CCCC[C@@H]1NC(=O)[C@H](C(C)C)NC(=O)[C@H](CCCCN)NC(=O)[C@@H](NC(=O)[C@H](CCC(N)=O)NC(=O)[C@H](CCC(=O)O)NC(C)=O)CSSC[C@@H](C(=O)N[C@@H](CCC(=O)O)C(=O)N[C@@H](CCCCN)C(N)=O)NC(=O)[C@H](CC(N)=O)NC(=O)[C@H](CC(=O)O)NC(=O)[C@H](CC(C)C)NC(=O)[C@@H]2CSSC[C@H](NC1=O)C(=O)N[C@@H](Cc1ccc(O)cc1)C(=O)N[C@@H](C)C(=O)N[C@@H](CCC(N)=O)C(=O)NCC(=O)N[C@@H](C)C(=O)N[C@@H](CCC(=O)O)C(=O)N[C@@H](CC(C)C)C(=O)N[C@@H](CO)C(=O)N1CCC[C@H]1C(=O)N[C@@H](CCC(=O)O)C(=O)N[C@@H](CC(C)C)C(=O)N[C@@H](CC(C)C)C(=O)N[C@@H](CCCNC(=N)N)C(=O)N[C@@H](CCCNC(=N)N)C(=O)N2 [VhTI-pep 1] (Ac-EQCKV[Nle]CYAQGAELSPELLRRCLDNCEK-NH2; disulfide 3-26, 7-22) | 23.5 ± 9.7% | 30.3 ± 14.7% | 34.6 ± 8.0% | 38.4 ± 2.4% | 21.2 ± 3.1% | 29.6 ± 6.7% | 15.1 ± 14.2% | 39.5 ± 11.6% | 25.6 ± 6.4% | 33.4 ± 8.5%
– | 2.2 ± 3.6 nM | – | – | CS(=O)(=O)c1cccc(C[C@H](NC(=O)c2c(Cl)cc3c(c2Cl)CCN(C(=O)c2ccc4ccoc4c2)C3)C(=O)O)c1 [lifitegrast, reference compound] | – | – | – | – | – | – | – | – | – | –
> 2880 min | – | – | – | CCCC[C@@H]1NC(=O)[C@H](C(C)C)NC(=O)[C@H](CCCCN)NC(=O)[C@@H](NC(=O)[C@H](CCC(N)=O)NC(=O)[C@H](CCC(=O)O)NC(C)=O)CSSC[C@@H](C(=O)N[C@@H](CCC(=O)O)C(=O)N[C@@H](CCCCN)C(N)=O)NC(=O)[C@H](CC(N)=O)NC(=O)[C@H](CC(=O)O)NC(=O)[C@H](CC(C)C)NC(=O)[C@@H]2CSSC[C@H](NC1=O)C(=O)N[C@@H](Cc1ccc(O)cc1)C(=O)N[C@@H](CCC(=O)O)C(=O)N[C@@H](CCC(N)=O)C(=O)NCC(=O)N[C@@H](C)C(=O)N[C@@H](CCC(=O)O)C(=O)N[C@@H](CC(C)C)C(=O)N1CCC[C@H]1C(=O)N[C@@H](CCC(=O)O)C(=O)N[C@@H](CC(C)C)C(=O)N[C@@H](CC(C)C)C(=O)N[C@@H](CCCNC(=N)N)C(=O)N[C@@H](CCCNC(=N)N)C(=O)N2 [VhTI-pep 3] (Ac-EQCKV[Nle]CYEQGAELPELLRRCLDNCEK-NH2; disulfide 3-25, 7-21) | –8.9 ± 18.1% | 10.8 ± 10.1% | 10.4 ± 11.2% | 14.0 ± 13.8% | 3.9 ± 9.7% | 3.0 ± 11.6% | –8.7 ± 3.4% | 11.7 ± 10.6% | 1.5 ± 7.6% | 4.6 ± 10.6%
> 2880 min | – | – | – | CCCC[C@@H]1NC(=O)[C@H](C(C)C)NC(=O)[C@H](CCCCN)NC(=O)[C@@H](NC(=O)[C@H](CCC(N)=O)NC(=O)[C@H](CCC(=O)O)NC(C)=O)CSSC[C@@H](C(=O)N[C@@H](CCC(=O)O)C(=O)N[C@@H](CCCCN)C(N)=O)NC(=O)[C@H](CC(N)=O)NC(=O)[C@H](CC(=O)O)NC(=O)[C@H](CC(C)C)NC(=O)[C@@H]2CSSC[C@H](NC1=O)C(=O)N[C@@H](Cc1ccc(O)cc1)C(=O)N[C@@H](CCC(=O)O)C(=O)N[C@@H](CCC(N)=O)C(=O)NCC(=O)N[C@@H](C)C(=O)N[C@@H](CC(C)C)C(=O)N[C@@H](CO)C(=O)N1CCC[C@H]1C(=O)N[C@@H](CCC(=O)O)C(=O)N[C@@H](CC(C)C)C(=O)N[C@@H](CC(C)C)C(=O)N[C@@H](CCCNC(=N)N)C(=O)N[C@@H](CCCNC(=N)N)C(=O)N2 [VhTI-pep 5] (Ac-EQCKV[Nle]CYEQGALSPELLRRCLDNCEK-NH2; disulfide 3-25, 7-21) | 16.2 ± 7.7% | 33.5 ± 5.7% | 20.8 ± 6.8% | 24.8 ± 12.8% | 4.7 ± 10.1% | 14.0 ± 13.4% | 11.5 ± 13.6% | 28.6 ± 8.8% | 18.0 ± 6.2% | 28.4 ± 7.4%
– | 54.6 ± 49.1 nM | – | – | CCCCCCCCCCCCC/C=C/[C@@H](O)[C@@H](N)COP(=O)(O)O [Sphingosine-1-phosphate, reference compound] | – | – | – | – | – | – | – | – | – | –
~180 min | – | 3.1 ± 0.5 h | 6 ± 6.4 nM | SVTEQGAELSNEER [Pepitem, reference compound] | – | – | – | – | – | – | – | – | – | –
